In ChEMBL document CHEMBL1141727, “Isolation and cytotoxic evaluation of marine sponge-derived norterpene peroxides” (J Nat Prod, 1998):

How the values were obtained:
Format in all cases: functional
CCRF-CEM = experiment: Growth inhibition of human CCRF-CEM cells
HCT-116 = experiment: Growth inhibition of human HCT116 cells
OVCAR-8 = experiment: Growth inhibition of human OVCAR8 cells
MCF7 = experiment: Growth inhibition of human MCF7 cells
SK-MEL-2 = experiment: Growth inhibition of human SK-MEL-2 cells
SK-MEL-28 = experiment: Growth inhibition of human SK-MEL-28 cells
DU-145 = experiment: Growth inhibition of human DU145 cells
COLO 205 = experiment: Growth inhibition of human COLO205 cells
EKVX = experiment: Growth inhibition of human EKVX cells
SN12C = experiment: Growth inhibition of human SN12C cells
OVCAR-5 = experiment: Growth inhibition of human OVCAR5 cells
SF-539 = experiment: Growth inhibition of human SF539 cells
CAKI-1 = experiment: Growth inhibition of human Caki1 cells
SF-295 = experiment: Growth inhibition of human SF295 cells
NCI-H322M = experiment: Growth inhibition of human NCI-H322M cells
[1] = Growth inhibition of human Hs 578T cells
MDA-MB-231 = experiment: Growth inhibition of human MDA-MB-231 cells
NCI-H522 = experiment: Growth inhibition of human NCI-H522 cells
HOP-92 = experiment: Growth inhibition of human HOP92 cells
786-0 = experiment: Growth inhibition of human 786-0 cells
U-251 = experiment: Growth inhibition of human U251 cells
ACHN = experiment: Growth inhibition of human ACHN cells
HCT-15 = experiment: Growth inhibition of human HCT15 cells
NCI-H226 = experiment: Growth inhibition of human NCI-H226 cells
L1210 = experiment: Growth inhibition of mouse L1210 cells assessed as zone units at 50 ug/disk by disk diffusion agar colony formation assay
[2] = Growth inhibition of human MCF7/ADR resistant cells; conditions: NCI/ADR-RES
RXF 393 = experiment: Growth inhibition of human […] cells
P388 = experiment: Growth inhibition of mouse P388 cells assessed as zone units at 50 ug/disk by disk diffusion agar colony formation assay
KM12 = experiment: Growth inhibition of human KM12 cells
MOLT-4 = experiment: Growth inhibition of human MOLT4 cells
UACC-62 = experiment: Growth inhibition of human UACC62 cells
OVCAR-4 = experiment: Growth inhibition of human OVCAR4 cells
HL-60(TB) = experiment: Growth inhibition of human HL-60(TB) cells
A498 = experiment: Growth inhibition of human A498 cells
OVCAR-3 = experiment: Growth inhibition of human OVCAR-3 cells
HT-29 = experiment: Growth inhibition of human HT-29 cells
BT-549 = experiment: Growth inhibition of human BT549 cells
MDA-MB-435 = experiment: Growth inhibition of human MDA-MB-435 cells
T47D = experiment: Growth inhibition of human T47D cells
SNB-75 = experiment: Growth inhibition of human SNB75 cells
UO-31 = experiment: Growth inhibition of human UO31 cells
SK-MEL-5 = experiment: Growth inhibition of human SK-MEL-5 cells
SR = experiment: Growth inhibition of human SR cells
UACC-257 = experiment: Growth inhibition of human UACC257 cells
NCI-H23 = experiment: Growth inhibition of human NCI-H23 cells
IGROV-1 = experiment: Growth inhibition of human IGROV1 cells
M14 = experiment: Growth inhibition of human M14 cells
SK-OV-3 = experiment: Growth inhibition of human SKOV3 cells
CX-1 = experiment: Growth inhibition of human CX-1 cells assessed as zone units at 50 ug/disk by disk diffusion agar colony formation assay
A549 = experiment: Growth inhibition of human A549 cells
Malme-3M = experiment: Growth inhibition of human MALME-3M cells
[3] = Growth inhibition of human […] cells
PO3 = experiment: Growth inhibition of mouse PO3 cells assessed as zone units at 50 ug/disk by disk diffusion agar colony formation assay
[4] = Growth inhibition of mouse M17/ADR cells assessed as zone units at 50 ug/disk by disk diffusion agar colony formation assay
SW-620 = experiment: Growth inhibition of human SW620 cells
HCC 2998 = experiment: Growth inhibition of human HCC2998 cells
MDA-N = experiment: Growth inhibition of human MDA-N cells
HOP-62 = experiment: Growth inhibition of human HOP62 cells
NCI-H460 = experiment: Growth inhibition of human NCI-H460 cells

Work on `C=C1CCC[C@H]2[C@](C)(CCC(C)=O)[C@@H](C)CC[C@]12C` yielded a GI50 (CCRF-CEM) greater than 15 µM, a GI50 (HCT-116) greater than 15 µM and a GI50 (OVCAR-8) greater than 15 µM. The GI50 (MCF7) was greater than 15 µM, the GI50 (SK-MEL-2) was greater than 15 µM and the GI50 (SK-MEL-28) was greater than 15 µM. For the same compound, the GI50 (DU-145) was greater than 15 µM, the GI50 (COLO 205) was greater than 15 µM and the GI50 (EKVX) was greater than 15 µM. For the same compound, the GI50 (SN12C) was greater than 15 µM, the GI50 (OVCAR-5) was greater than 15 µM and the GI50 (SF-539) was greater than 15 µM. The GI50 (CAKI-1) was greater than 15 µM, the GI50 (SF-295) was greater than 15 µM and the GI50 (NCI-H322M) was greater than 15 µM. For the same compound, the GI50 [1] was greater than 15 µM, the GI50 (MDA-MB-231) was greater than 15 µM and the GI50 (NCI-H522) was greater than 15 µM. The GI50 (HOP-92) was greater than 15 µM, the GI50 (786-0) was greater than 15 µM and the GI50 (U-251) was greater than 15 µM. The GI50 (ACHN) was greater than 15 µM, the GI50 (HCT-15) was greater than 15 µM and the GI50 (NCI-H226) was greater than 15 µM. For the same compound, the Activity (L1210) was 0 Zone units, the GI50 [2] was greater than 15 µM and the GI50 (RXF 393) was greater than 15 µM. For the same compound, the Activity (P388) was 0 Zone units, the GI50 (KM12) was greater than 15 µM and the GI50 (MOLT-4) was greater than 15 µM. For the same compound, the GI50 (UACC-62) was greater than 15 µM, the GI50 (OVCAR-4) was greater than 15 µM and the GI50 (HL-60(TB)) was greater than 15 µM. It also gave a GI50 (A498) greater than 15 µM, a GI50 (OVCAR-3) greater than 15 µM and a GI50 (HT-29) greater than 15 µM. For the same compound, the GI50 (BT-549) was greater than 15 µM, the GI50 (MDA-MB-435) was greater than 15 µM and the GI50 (T47D) was greater than 15 µM. The GI50 (SNB-75) was 3.02 µM, the GI50 (UO-31) was greater than 15 µM and the GI50 (SK-MEL-5) was greater than 15 µM. The GI50 (SR) was greater than 15 µM, the GI50 (UACC-257) was greater than 15 µM and the GI50 (NCI-H23) was greater than 15 µM. For the same compound, the GI50 (IGROV-1) was greater than 15 µM, the GI50 (M14) was greater than 15 µM and the GI50 (SK-OV-3) was greater than 15 µM. It also gave an Activity (CX-1) of 100 Zone units, a GI50 (A549) greater than 15 µM and a GI50 (Malme-3M) greater than 15 µM. It also gave a GI50 [3] greater than 15 µM, an Activity (PO3) of 0 Zone units and an Activity [4] of 0 Zone units. The GI50 (SW-620) was greater than 15 µM, the GI50 (HCC 2998) was greater than 15 µM and the GI50 (MDA-N) was greater than 15 µM. It also gave a GI50 (HOP-62) greater than 15 µM and a GI50 (NCI-H460) greater than 15 µM.
